Test results published in ChEMBL document CHEMBL1909046, “DrugMatrix in vitro pharmacology data”.

What was measured:
[1] = molecular target: T1, Progesterone receptor (Bos taurus, UniProt Q690N0); assay: DRUGMATRIX: Progesterone radioligand binding (ligand: [3H] R-5020); type: tissue-based, Uterus; details: Not Active = under 50% inhibition at 10 µM
T1 sequence (Q690N0 whole entry): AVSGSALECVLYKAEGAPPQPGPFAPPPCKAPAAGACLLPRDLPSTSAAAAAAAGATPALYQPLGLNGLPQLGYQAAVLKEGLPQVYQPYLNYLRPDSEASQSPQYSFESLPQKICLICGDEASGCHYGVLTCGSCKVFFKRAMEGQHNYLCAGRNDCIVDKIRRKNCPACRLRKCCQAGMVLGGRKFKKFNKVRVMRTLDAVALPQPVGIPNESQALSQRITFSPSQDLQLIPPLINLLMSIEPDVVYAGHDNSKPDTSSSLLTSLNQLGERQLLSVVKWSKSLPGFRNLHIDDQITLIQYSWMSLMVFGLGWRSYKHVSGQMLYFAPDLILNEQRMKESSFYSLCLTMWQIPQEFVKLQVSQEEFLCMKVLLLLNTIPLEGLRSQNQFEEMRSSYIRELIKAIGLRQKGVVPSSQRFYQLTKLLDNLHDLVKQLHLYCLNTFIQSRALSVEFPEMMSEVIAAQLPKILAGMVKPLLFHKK

[2] = molecular target: T2, Alpha-1A adrenergic receptor (Rattus norvegicus, UniProt P43140); assay: DRUGMATRIX: Alpha-1A adrenergic receptor radioligand binding (ligand: prazosin); type: cell membranes, Wistar, Submaxillary gland, Membrane; details: Not Active = under 50% inhibition at 10 µM
T2 sequence (P43140 whole entry): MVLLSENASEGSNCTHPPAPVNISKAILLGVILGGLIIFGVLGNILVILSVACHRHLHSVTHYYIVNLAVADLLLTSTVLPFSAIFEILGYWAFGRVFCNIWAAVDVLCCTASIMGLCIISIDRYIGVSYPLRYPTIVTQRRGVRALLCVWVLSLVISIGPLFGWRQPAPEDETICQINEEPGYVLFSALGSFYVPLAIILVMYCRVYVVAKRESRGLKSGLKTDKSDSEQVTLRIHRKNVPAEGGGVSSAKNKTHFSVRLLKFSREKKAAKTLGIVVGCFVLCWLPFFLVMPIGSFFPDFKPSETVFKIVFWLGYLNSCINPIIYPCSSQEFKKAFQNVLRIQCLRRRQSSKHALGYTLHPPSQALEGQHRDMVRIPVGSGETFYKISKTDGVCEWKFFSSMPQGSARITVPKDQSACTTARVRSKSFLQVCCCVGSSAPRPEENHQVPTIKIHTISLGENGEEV

[3] = molecular target: Protein kinase C alpha type (Homo sapiens, UniProt P17252); type: cell-based; details: sf9;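 also: inhibition of PKCalpha kinase activity measured in an enzyme assay with histone as the phosphorylation substrate; in other assays of this panel Not Active means under 50% inhibition at 10 µM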
[4] = molecular target: T3, Alpha-1D adrenergic receptor (Homo sapiens, UniProt P25100); type: cell membranes, HEK293, Membrane; details: hek293; also: in other assays of this panel Not Active means under 50% inhibition at 10 µM
T3 sequence (P25100 whole entry): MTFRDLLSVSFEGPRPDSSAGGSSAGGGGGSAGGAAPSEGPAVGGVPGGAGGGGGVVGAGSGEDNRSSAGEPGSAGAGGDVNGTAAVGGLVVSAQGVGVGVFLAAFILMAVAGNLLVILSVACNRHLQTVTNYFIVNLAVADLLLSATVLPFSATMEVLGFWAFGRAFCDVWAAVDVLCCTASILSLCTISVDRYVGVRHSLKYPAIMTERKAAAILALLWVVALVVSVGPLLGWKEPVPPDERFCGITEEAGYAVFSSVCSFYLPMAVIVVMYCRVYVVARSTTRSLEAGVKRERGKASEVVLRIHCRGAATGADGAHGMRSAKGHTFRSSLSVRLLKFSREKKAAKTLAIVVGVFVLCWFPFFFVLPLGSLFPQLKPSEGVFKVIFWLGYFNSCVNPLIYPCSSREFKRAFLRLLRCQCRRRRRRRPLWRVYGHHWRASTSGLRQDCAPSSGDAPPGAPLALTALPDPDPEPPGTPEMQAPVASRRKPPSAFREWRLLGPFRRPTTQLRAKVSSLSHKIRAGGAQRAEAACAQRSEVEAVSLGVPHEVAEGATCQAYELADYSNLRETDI

[5] = molecular target: T4, C-X-C chemokine receptor type 1 (Homo sapiens, UniProt P25024); also: in other assays of this panel Not Active means under 50% inhibition at 10 µM
T4 sequence (P25024 whole entry): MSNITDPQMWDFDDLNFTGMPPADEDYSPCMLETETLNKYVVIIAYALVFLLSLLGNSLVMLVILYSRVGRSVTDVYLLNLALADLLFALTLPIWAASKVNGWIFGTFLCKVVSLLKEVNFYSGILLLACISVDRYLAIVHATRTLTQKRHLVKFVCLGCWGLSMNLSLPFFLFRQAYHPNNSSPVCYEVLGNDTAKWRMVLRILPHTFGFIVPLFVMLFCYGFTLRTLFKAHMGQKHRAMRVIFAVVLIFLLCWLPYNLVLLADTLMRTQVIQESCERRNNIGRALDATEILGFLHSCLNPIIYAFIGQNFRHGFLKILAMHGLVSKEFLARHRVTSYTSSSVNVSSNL

[6] = molecular target: Cytochrome P450 3A4 (Homo sapiens, UniProt P08684); details: bti-tn-5b1-4; also: in other assays of this panel Not Active means under 50% inhibition at 10 µM
[7] = DRUGMATRIX: Platelet-Derived Growth Factor (PDGF) radioligand binding (ligand: [125I] PDGF); type: cell-based; details: nih3t3; Not Active = under 50% inhibition at 10 µM

Cytochrome P450 3A4, sequence (P08684 whole entry): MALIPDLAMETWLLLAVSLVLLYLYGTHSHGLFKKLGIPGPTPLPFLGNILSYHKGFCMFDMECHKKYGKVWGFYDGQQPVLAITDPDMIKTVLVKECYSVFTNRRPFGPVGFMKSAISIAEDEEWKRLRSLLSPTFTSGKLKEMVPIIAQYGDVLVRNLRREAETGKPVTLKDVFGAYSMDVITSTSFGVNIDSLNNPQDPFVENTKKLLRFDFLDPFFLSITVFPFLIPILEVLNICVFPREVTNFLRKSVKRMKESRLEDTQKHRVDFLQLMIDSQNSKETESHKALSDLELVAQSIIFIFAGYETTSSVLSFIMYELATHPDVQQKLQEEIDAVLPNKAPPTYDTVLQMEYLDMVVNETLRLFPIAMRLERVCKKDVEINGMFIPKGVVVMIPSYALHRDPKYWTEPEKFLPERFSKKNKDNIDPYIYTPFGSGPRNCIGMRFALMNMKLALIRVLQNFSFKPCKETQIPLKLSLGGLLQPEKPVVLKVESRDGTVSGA

COc1ccccc1OCC(O)COC(N)=O (stereo not given) [METHOCARBAMOL]
Not Active: IC50 [1] | IC50 [2] | IC50 [3] | IC50 [4] | IC50 [5] | IC50 [6] | Ki [6] | IC50 [7] | Ki [7]

CN(Cc1cnc2nc(N)nc(N)c2n1)c1ccc(C(=O)N[C@@H](CCC(=O)O)C(=O)O)cc1 [METHOTREXATE]
Not Active: IC50 [1] | IC50 [2] | IC50 [3] | IC50 [4] | IC50 [5] | IC50 [6] | Ki [6] | IC50 [7] | Ki [7]

COC(=O)c1ccccc1O [METHYL SALICYLATE]
Not Active: IC50 [1] | IC50 [2] | IC50 [3] | IC50 [4] | IC50 [5] | IC50 [6] | Ki [6] | IC50 [7] | Ki [7]

COc1ccc2cc(CCC(C)=O)ccc2c1 [NABUMETONE]
Not Active: IC50 [1] | IC50 [2] | IC50 [3] | IC50 [4] | IC50 [5] | IC50 [6] | Ki [6] | IC50 [7] | Ki [7]

O=C(O)c1cccnc1 [NIACIN]
Not Active: IC50 [1] | IC50 [2] | IC50 [3] | IC50 [4] | IC50 [5] | IC50 [6] | Ki [6] | IC50 [7] | Ki [7]

CNC(=C[N+](=O)[O-])NCCSCc1csc(CN(C)C)n1 [NIZATIDINE]
Not Active: IC50 [1] | IC50 [2] | IC50 [3] | IC50 [4] | IC50 [5] | IC50 [6] | Ki [6] | IC50 [7] | Ki [7]

C[C@]12C/C(=C/O)C(=O)C[C@@H]1CC[C@@H]1[C@@H]2CC[C@@]2(C)[C@H]1CC[C@]2(C)O [OXYMETHOLONE]
Not Active: IC50 [1] | IC50 [2] | IC50 [3] | IC50 [4] | IC50 [5] | IC50 [6] | Ki [6] | IC50 [7] | Ki [7]

CC(C)(CO)C(O)C(=O)NCCCO (stereo not given) [PANTHENOL]
Not Active: IC50 [1] | IC50 [2] | IC50 [3] | IC50 [4] | IC50 [5] | IC50 [6] | Ki [6] | IC50 [7] | Ki [7]

COc1ccc(Cc2nccc3cc(OC)c(OC)cc23)cc1OC [PAPAVERINE]
Not Active: IC50 [1] | IC50 [2] | IC50 [3] | IC50 [4] | IC50 [5] | IC50 [6] | Ki [6] | IC50 [7] | Ki [7]

CCCCC1C(=O)N(c2ccccc2)N(c2ccccc2)C1=O [PHENYLBUTAZONE]
Not Active: IC50 [1] | IC50 [2] | IC50 [3] | IC50 [4] | IC50 [5] | IC50 [6] | Ki [6] | IC50 [7] | Ki [7]

Cc1cccc(Nc2cc(Cl)nc(SCC(=O)O)n2)c1C [PIRINIXIC ACID]
Not Active: IC50 [1] | IC50 [2] | IC50 [3] | IC50 [4] | IC50 [5] | IC50 [6] | Ki [6] | IC50 [7] | Ki [7]

CC[C@H](C)C(=O)O[C@H]1C[C@H](O)C=C2C=C[C@H](C)[C@H](CC[C@@H](O)C[C@@H](O)CC(=O)O)[C@H]21 [PRAVASTATIN]
Not Active: IC50 [1] | IC50 [2] | IC50 [3] | IC50 [4] | IC50 [5] | IC50 [6] | Ki [6] | IC50 [7] | Ki [7]

CC(C)(Sc1cc(C(C)(C)C)c(O)c(C(C)(C)C)c1)Sc1cc(C(C)(C)C)c(O)c(C(C)(C)C)c1 [PROBUCOL]
Not Active: IC50 [1] | IC50 [2] | IC50 [3] | IC50 [4] | IC50 [5] | IC50 [6] | Ki [6] | IC50 [7] | Ki [7]

COBALT(II) ACETYLACETONATE
Not Active: IC50 [1] | Ki [1] | IC50 [2] | Ki [2] | IC50 [3] | Ki [3] | IC50 [4] | Ki [4] | IC50 [5] | Ki [5] | IC50 [6] | Ki [6] | IC50 [7] | Ki [7]

INSULIN HUMAN
Not Active: IC50 [1] | Ki [1] | IC50 [2] | Ki [2] | IC50 [3] | Ki [3] | IC50 [4] | Ki [4] | IC50 [5] | Ki [5] | IC50 [6] | Ki [6] | IC50 [7] | Ki [7]
